For series [1], the system named is Influenza A/Hong Kong/8/68. Kind of series: microbe, parasite or virus in culture. The class given is cell-based, influenza type A.
In series [2] the test system is BVDV NADL. Description: Anti-Bovine Diarrhea Virus (surrogate Hepatitis C) cytoprotection assay (XTT) in MDBK cells. It is filed as cell-based, Bovine Viral Diarrhea virus. The following applies: inhibition of virus-induced cell killing, 100 μM high test concentration. (In general: Tetrazolium dyes change colour on reduction, which living cells bring about.)
For series [3], the system named is MDCK cells.
In series [4] the test system is MDBK cells. The following applies: read-out: TC50, cells plus drug only, XTT.
The nature of series [5]: in vitro. As to conditions: dog.

Where two headings read alike, the source gives them in different places.

What is called EC50 is the concentration that produces a half-maximal response. Regarding `COCCOCCOCCNC(=N)c1ncn([C@@H]2O[C@H](CO)[C@@H](O)[C@H]2O)n1` [mPEG3-N-Ribamidine], the EC50 is 67.8 µM in series [1] (read-out: EC50) and over 100 µM in series [2]. Moreover, the CC50 in series [3] and in series [4] was over 100 µM throughout.
Regarding `COCCOCCOCCOCCOCCOCCOCCNC(=N)c1ncn([C@@H]2O[C@H](CO)[C@@H](O)[C@H]2O)n1` [mPEG7-N-Ribamidine], the EC50 in series [1] (read-out: EC50) and in series [2] was over 100 µM each time. For the same compound, the CC50 in series [3] and in series [4] was over 100 µM throughout.
Take `COCCOCCOCCOCCOCCOCCOCCN(CCOCCOCCOCCOCCOCCOCCOC)C(=O)c1ncn([C@@H]2O[C@H](CO)[C@@H](O)[C@H]2O)n1` [Di-mPEG7-N-Ribavirin]: the half-maximal effective concentration (EC50) in series [1] (read-out: EC50) and in series [2] was over 100 µM in each case. In addition, the CC50 in series [3] and in series [4] was over 100 µM throughout.
In the case of `COCCOCCOCCOCCOCCNC(=O)c1ncn([C@@H]2O[C@H](CO)[C@@H](O)[C@H]2O)n1` [mPEG5-N-Ribavirin], the EC50 in series [1] (read-out: EC50) and in series [2] was over 100 µM each time. Besides, the CC50 in series [3] and in series [4] was over 100 µM each time.
In the case of `NC12CC3CC(CC(C3)C1)C2` [Amantadine, amantadine, reference compound], the concentration for a half-maximal effect (EC50) in series [1] (Influenza A virus, MDCK, MDCK/Influenza A/Hong Kong/8/68, inhibition of virus-induced cell killing, XTT, 100 μM high test concentration, read-out: EC50) came to 0.1 µM. In addition, the CC50 in series [5] (TC50, MDCK cells, cells plus drug only, XTT) is over 10 µM.
As to `COCCOCCOCCOCCOCCOCCNC(=N)c1ncn([C@@H]2O[C@H](CO)[C@@H](O)[C@H]2O)n1` [mPEG6-N-Ribamidine], the EC50 in series [1] (read-out: EC50) and in series [2] was over 100 µM each time. Besides, the CC50 was over 100 µM in series [3] and 87.6 µM in series [4].
Consider `NC(=O)c1ncn([C@@H]2O[C@H](CO)[C@@H](O)[C@H]2O)n1` [Ribavirin, ribavirin, reference compound], for which the EC50 in series [1] is 16.3 µM; in series [1] (Influenza A virus, MDCK) it was 18.2 µM; in series [2] (Bovine viral diarrhea virus isolates and strains, MDBK), 8.1 µM; in series [2], 5.2 µM. Moreover, the CC50 in series [3] (dog) was found to be 79 µM; in series [5] (TC50), 50 µM.
On to `COCCOCCOCCOCCOCCN(CCOCCOCCOCCOCCOC)C(=O)c1ncn([C@@H]2O[C@H](CO)[C@@H](O)[C@H]2O)n1` [Di-mPEG5-N-Ribavirin], for which the EC50 is 5.5 µM in series [1] (read-out: EC50) and over 100 µM in series [2]. The CC50 in series [3] was 19.5 µM; in series [4] it was over 100 µM.

The values are drawn from patent publication US9149538B2, “Oligomer conjugates of heteropentacyclic nucleosides” (priority 2008, dated 2015).
